Values belong to the molecule of their own block, whether it stands above or below them.
Assays:
fibrinogen = test: Thrombin assay: peroxidase-fibrinogen bound to fibrinogen-coated microtiter plate; format: biochemical, human; details: for [Thrombin] for O.D. = 1: unit not printed here (preceding table: NIH units/ml)
Description: This was prepared by the method of Nakane and Kawaoi (J. Histochem. Cytochem (1974) 22:1084) using 40 mg of horseradish peroxidase and 300 mg of human fibrinogen. The molar ratio of peroxidase to fibrinogen in the final product was 0.39. This was diluted with unlabeled fibrinogen to a concentration of 0.72 mg/ml of fibrinogen with a molar ratio of 0.12 moles of peroxidase per mole of fibrinogen, stored in 50% glycerol at -20° C.
(§1) In the first assay, microtiter plates were coated with 150 μl per well of 50 μg/ml of fibrinogen in 10 mM Tris-acetate buffered saline, pH 7.6 (TABS) containing 10 mM EDTA overnight at 4° C. The solution was removed from the plate, and 100 μl of a 10 μg/ml solution of peroxidase-fibrinogen in 3.8 mg/ml bovine serum albumin (BSA) in TABS containing 10 mM calcium chloride was added to the well. 50 μl of thrombin diluted from 0.1 to 0.00078 NIH units/ml (30-0.25 ng/ml) was added to each well for various times from 0-160 min, after which the solution was washed from the plate. Peroxidase assay was performed using ortho-phenylenediamine as the indicator dye, with 11 min of incubation. Optical density was measured at 490 nm using a microtiter plate reader, with the following results:
Not only the endpoint (O.D.>2), but also the partial reaction ([…])can be used as a measure of thrombin activity. The penultimate value prior to the endpoint, or an approximate extrapolation to the concentration of thrombin yielding an O.D. value of 1 can be used to standardize this assay. For the above experiment, this value is reached at thrombin concentrations of: […]

thrombin = target: T1, thrombin (Homo sapiens, UniProt P00734); test: Inhibition of thrombin in the solid-phase thrombin assay; format: biochemical; details: 80 min assay
T1 construct: additional factors necessary for cleavage of prothrombin to thrombin
Description: as §1, with “incubation.” for “incubation. Optical density was measured at 490 nm using a microtiter plate reader, with the following results:”
In the next assay, benzamidine and D-phenylalanyl-L-prolyl-L-arginine chloromethyl ketone (PPACK) were added to thrombin at the start of the assay. […] The percent inhibition can be calculated from the increased thrombin concentration required to obtain equivalent activity, as
% inhibition=100 * (1-To/Ti)
where To is the thrombin concentration yielding an O.D.=1 in the absence of inhibitor, and Ti is the thrombin concentration yielding an O.D.=1 in the presence of a given inhibitor concentration.

[Thrombin] for O.D. = 1 (fibrinogen; incubation time 10 min): > 0.03 | [Thrombin] for O.D. = 1 (fibrinogen; incubation time 20 min): 0.02 | [Thrombin] for O.D. = 1 (fibrinogen; incubation time 40 min): 0.005 | [Thrombin] for O.D. = 1 (fibrinogen; incubation time 80 min): 0.002 | [Thrombin] for O.D. = 1 (fibrinogen; incubation time 160 min): 0.0008 | Optical density at 490 nm (fibrinogen; thrombin .00026 NIH units/ml, incubation 0 min): 0.20 | Optical density at 490 nm (fibrinogen; thrombin .00026 NIH units/ml, incubation 10 min): 0.24 | Optical density at 490 nm (fibrinogen; thrombin .00026 NIH units/ml, incubation 20 min): 0.19 | Optical density at 490 nm (fibrinogen; thrombin .00026 NIH units/ml, incubation 40 min): 0.25 | Optical density at 490 nm (fibrinogen; thrombin .00026 NIH units/ml, incubation 80 min): 0.32 | Optical density at 490 nm (fibrinogen; thrombin .00026 NIH units/ml, incubation 160 min): 0.24 | Optical density at 490 nm (fibrinogen; thrombin .0005 NIH units/ml, incubation 0 min): 0.21 | Optical density at 490 nm (fibrinogen; thrombin .0005 NIH units/ml, incubation 10 min): 0.21 | Optical density at 490 nm (fibrinogen; thrombin .0005 NIH units/ml, incubation 20 min): 0.16 | Optical density at 490 nm (fibrinogen; thrombin .0005 NIH units/ml, incubation 40 min): 0.14 | Optical density at 490 nm (fibrinogen; thrombin .0005 NIH units/ml, incubation 80 min): 0.18 | Optical density at 490 nm (fibrinogen; thrombin .0005 NIH units/ml, incubation 160 min): 0.60 | Optical density at 490 nm (fibrinogen; thrombin .0010 NIH units/ml, incubation 0 min): 0.22 | Optical density at 490 nm (fibrinogen; thrombin .0010 NIH units/ml, incubation 10 min): 0.15 | Optical density at 490 nm (fibrinogen; thrombin .0010 NIH units/ml, incubation 20 min): 0.18 | Optical density at 490 nm (fibrinogen; thrombin .0010 NIH units/ml, incubation 40 min): 0.23 | Optical density at 490 nm (fibrinogen; thrombin .0010 NIH units/ml, incubation 80 min): 0.37 | Optical density at 490 nm (fibrinogen; thrombin .0010 NIH units/ml, incubation 160 min): 1.55 | Optical density at 490 nm (fibrinogen; thrombin .0021 NIH units/ml, incubation 0 min): 0.25 | Optical density at 490 nm (fibrinogen; thrombin .0021 NIH units/ml, incubation 10 min): 0.18 | Optical density at 490 nm (fibrinogen; thrombin .0021 NIH units/ml, incubation 20 min): 0.18 | Optical density at 490 nm (fibrinogen; thrombin .0021 NIH units/ml, incubation 40 min): 0.18 | Optical density at 490 nm (fibrinogen; thrombin .0021 NIH units/ml, incubation 80 min): 1.02 | Optical density at 490 nm (fibrinogen; thrombin .0021 NIH units/ml, incubation 160 min): > 2 | Optical density at 490 nm (fibrinogen; thrombin .0042 NIH units/ml, incubation 0 min): 0.23 | Optical density at 490 nm (fibrinogen; thrombin .0042 NIH units/ml, incubation 10 min): 0.22 | Optical density at 490 nm (fibrinogen; thrombin .0042 NIH units/ml, incubation 20 min): 0.26 | Optical density at 490 nm (fibrinogen; thrombin .0042 NIH units/ml, incubation 40 min): 0.87 | Optical density at 490 nm (fibrinogen; thrombin .0042 NIH units/ml, incubation 80 min): > 2 | Optical density at 490 nm (fibrinogen; thrombin .0042 NIH units/ml, incubation 160 min): > 2 | Optical density at 490 nm (fibrinogen; thrombin .0083 NIH units/ml, incubation 0 min): 0.30 | Optical density at 490 nm (fibrinogen; thrombin .0083 NIH units/ml, incubation 10 min): 0.42 | Optical density at 490 nm (fibrinogen; thrombin .0083 NIH units/ml, incubation 20 min): 0.40 | Optical density at 490 nm (fibrinogen; thrombin .0083 NIH units/ml, incubation 40 min): 1.67 | Optical density at 490 nm (fibrinogen; thrombin .0083 NIH units/ml, incubation 80 min): > 2 | Optical density at 490 nm (fibrinogen; thrombin .0083 NIH units/ml, incubation 160 min): > 2 | Optical density at 490 nm (fibrinogen; thrombin .017 NIH units/ml, incubation 0 min): 0.31 | Optical density at 490 nm (fibrinogen; thrombin .017 NIH units/ml, incubation 10 min): 0.30 | Optical density at 490 nm (fibrinogen; thrombin .017 NIH units/ml, incubation 20 min): 0.91 | Optical density at 490 nm (fibrinogen; thrombin .017 NIH units/ml, incubation 40 min): > 2 | Optical density at 490 nm (fibrinogen; thrombin .017 NIH units/ml, incubation 80 min): > 2 | Optical density at 490 nm (fibrinogen; thrombin .017 NIH units/ml, incubation 160 min): > 2 | Optical density at 490 nm (fibrinogen; thrombin .033 NIH units/ml, incubation 0 min): 0.41 | Optical density at 490 nm (fibrinogen; thrombin .033 NIH units/ml, incubation 10 min): 0.52 | Optical density at 490 nm (fibrinogen; thrombin .033 NIH units/ml, incubation 20 min): 1.24 | Optical density at 490 nm (fibrinogen; thrombin .033 NIH units/ml, incubation 40 min): > 2 | Optical density at 490 nm (fibrinogen; thrombin .033 NIH units/ml, incubation 80 min): > 2 | Optical density at 490 nm (fibrinogen; thrombin .033 NIH units/ml, incubation 160 min): > 2
Molecule: Thrombin

Molecule: N=C(N)NCCC[C@H](NC(=O)[C@@H]1CCCN1C(=O)[C@H](N)Cc1ccccc1)C(=O)CCl [PPACK, D-phenylalanyl-L-prolyl-L-arginine chloromethyl ketone]
% Inhibition (thrombin; [PPACK] .005 nM): 11% | % Inhibition (thrombin; [PPACK] .01 nM): 19% | % Inhibition (thrombin; [PPACK] .02 nM): 43% | % Inhibition (thrombin; [PPACK] .05 nM): 62% | % Inhibition (thrombin; [PPACK] .1 nM): 79% | % Inhibition (thrombin; [PPACK] .2 nM): 83% | % Inhibition (thrombin; [PPACK] .5 nM): 95%

Molecule: N=C(N)c1ccccc1 [Benzamidine, benzamidine]
% Inhibition (thrombin; [Benzamidine] 0.5 mM): 8% | % Inhibition (thrombin; [Benzamidine] 1 mM): 41% | % Inhibition (thrombin; [Benzamidine] 2 mM): 55% | % Inhibition (thrombin; [Benzamidine] 5 mM): 75% | % Inhibition (thrombin; [Benzamidine] 10 mM): 84% | % Inhibition (thrombin; [Benzamidine] 20 mM): 97%

Source: patent US4668621A, “Detecting blood clotting factors with immobilized fibrinogen and labeled fibrinogen” (Wake Forest University, priority 1985, dated 1987)
